Source: patent publication US4970199A, “Steroidal glycolipids as host resistance stimulators against viral infection” (priority 1989, dated 1990)
“Also recorded” adds a separate entry of the source.

Tests used:
[1] = tested on: HIV; conditions: cited from earlier work
[2] = cited from earlier work
[3] = cited from earlier work; remark: listed apart in the source
[4] = tested on: Mycobacterium avium-intracellulare; conditions: human, in vivo; cited from earlier work
[5] = tested on: HIV; conditions: clinical trials; cited from earlier work
[6] = tested on: Herpes Simplex Virus-1 (HSV1); assay: Antiviral experiment in mice infected IP with Herpes Simplex Virus-1; format: in vivo, HSV1 (Schloser), in ICR mice
Experimental: An antiviral experiment was conducted to compare treatment with 6-(5-Cholesten-3β-yloxy)hexyl 1-thio-β-D-mannopyranoside (Example 2) in mice infected IP with Herpes Simplex Virus-1 (HSV1) immediately before (post treatment) or after 5 days of treatment (pretreatment).
Ten mice (ICR, 20 gm, mixed sexes) were pretreated by SC injection of a 0.1 mL suspension of test compound twice a day for 4 days. On day 5, the mice were injected IP with 0.5 mL solution of HSV1 (Schloser, 10-5). The post treatment group was infected with HSV1 prior to administration of test compound. Day of death from time of infection with HSV1 was recorded for each mouse and average day of death per treatment group was calculated.

[7] = tested on: Pseudomonas aeruginosa; assay: Stimulation of host resistance: protection of cyclophosphamide-immunocompromised mice from Pseudomonas aeruginosa infection; format: in vivo, Pseudomonas aeruginosa (Immunotype 1), in CF1 female mice; conditions: Table 3, CY-treated mice, dose not printed in table (initial test dose 40 mg per kg)
Experimental: Groups of 15-20 CF1 female mice (Charles River Breeding, Cambridge, Mass.) weighing 22-28 gm were injected intraperitoneally (i.p.) with cyclophosphamide (Cytoxan; CY) at 250 mg per kg body weight. One to two hours later they were typically injected again with the test material by the route specified. Four days later, the mice were divided into groups of five, each of which were injected i.p. with a different dilution of a suspension of Pseudomonas aeruginosa (Immunotype 1). The number of survivors was determined periodically and an estimate was made of the number of CFU of Pseudomonas organisms necessary to cause 50% lethality by the cumulative method of L. J. Reed and H. Muench (Am. J. Hygiene 27 (1938) 493-497). A protective index (P.I.) was defined as the LD50 for the mice receiving cyclophosphamide and the test compound divided by the LD50 for the mice receiving cyclophosphamide alone. All control mice were injected with aqueous vehicle in the same route and schedule as the test animals.
MATERIALS. All compounds for dosing were suspended in a sterile medium referred to as "aqueous vehicle" which contains 0.9% sodium chloride, 0.5% carboxymethyl cellulose, 0.4% Tween 80, and 0.9% benzyl alcohol unless otherwise stated. Test materials were evaluated via subcutaneous (s.c.), i.p., intramuscular (i.m.), orally (p.o.). and intravenous (i.v.) routes of administration. […]

[8] = tested on: reverse transcriptase in several retroviruses; conditions: in vitro; cited from earlier work
[9] = tested on: human immunodeficiency virus (HIV); conditions: cited from earlier work
[10] = tested on: Kaposi's sarcoma; conditions: in vivo; cited from earlier work

## Cc1cn([C@H]2C[C@H](N=[N+]=[N-])[C@@H](CO)O2)c(=O)[nH]c1=O [AZT, 3'-azido-3'-deoxythymidine]
[1]; human, in vivo
  prolonging lives of patients with AIDS or ARC: show promise in prolonging lives of patients with AIDS or AIDS-related complex (ARC)
[2]; in vivo
  half-life in the body: relatively short half-life in the body
[2]; oral
  oral absorption: Well absorbed orally
[3]; in vivo
  toxicity: some toxicity, with anemia and headaches

## CO[C@H]1/C=C/O[C@@]2(C)Oc3c(C)c(O)c4c(c3C2=O)C2=NC3(CCN(CC(C)C)CC3)NC2=C(NC(=O)/C(C)=C\C=C\[C@H](C)[C@H](O)[C@@H](C)[C@@H](O)[C@@H](C)[C@H](OC(C)=O)[C@@H]1C)C4=O [Ansamycin, rifabutin]
[4]
  efficacy in AIDS patients with opportunistic infection: some efficacy in treating AIDS patients with an opportunistic infection

## CC(C)(N1CC1C#N)N1CC1C(N)=O (stereo not drawn) [Azimexon]
[1]; early trial, ARC and AIDS patients
  symptoms and immune function: improvements in symptoms and immune function in patients with ARC but not AIDS
[3]; early trial, disappeared when treatment ceased
  toxic effect: only toxic effect was mild hemolysis

## CC(C)(S)[C@@H](N)C(=O)O [D-Penicillamine, 3-mercapto-D-valine]
[5]
  HIV reproduction / viral replication in patients: Inhibits HIV reproduction in humans; also recorded: suppressed the virus

## CC(C)CCC[C@@H](C)[C@H]1CC[C@H]2[C@@H]3CC=C4C[C@@H](OCCCCCCS[C@@H]5O[C@H](CO)[C@@H](O)[C@H](O)[C@@H]5O)CC[C@]4(C)[C@H]3CC[C@]12C [Example 2, 6-(5-Cholesten-3β-yloxy)hexyl 1-thio-β-D-mannopyranoside]
[6]; 50 mg/kg twice a day for four days
  protection from fatal viral infection over placebo treated animals, by day of death: statistically enhanced protection from fatal viral infection over placebo treated animals
[6]; pretreatment vs post treatment
  protection of pretreated mice over the post treatment group: statistically enhanced protection over the post treatment group

## CC[C@H](/C=C/[C@@H](C)[C@H]1CC[C@H]2[C@@H]3CC=C4C[C@@H](OCCCCCCS[C@@H]5O[C@H](CO)[C@@H](O)[C@H](O)[C@@H]5O)CC[C@]4(C)[C@H]3CC[C@]12C)C(C)C [Example 6, 6-(Stigmasta-5,22-dien-3β-yloxy)hexyl 1-thio-β-D-mannopyranoside]
[7]
  Protective Index (log): 2.0 log

## CC(=O)NC(C)C1CCC2C3CC=C4CC(OCCCCCCSC5OC(CO)C(O)C(O)C5O)CCC4(C)C3CCC12C [Example 11, 6-(20S-Acetamido-pregn-5-en-3β-yloxy)hexyl 1-thio-β-D-mannopyranoside]
[7]
  Protective Index (log): 3.0 log

## O=C(O)P(=O)(O)O [Foscarnet, trisodium phosphonoformate]
[3]; in vivo
  side effects: serious side effects

## CC(=O)Nc1ccc(C(=O)O)cc1.CC(=O)Nc1ccc(C(=O)O)cc1.CC(=O)Nc1ccc(C(=O)O)cc1.CC(O)CN(C)C.CC(O)CN(C)C.CC(O)CN(C)C.O=c1[nH]cnc2c1ncn2[C@@H]1O[C@H](CO)[C@@H](O)[C@H]1O [Inosine pranobex]
[1]; human, in vivo
  immune function in ARC or AIDS patients: improve immune function in ARC patients

## NC(=O)c1ncn([C@@H]2O[C@H](CO)[C@@H](O)[C@H]2O)n1 [Ribavirin, 1-β-D-ribofuranosyl-1,2,4-triazole-3-carboxamide]
[5]
  HIV reproduction / viral replication in patients: inhibited viral replication
[1]; human, in vivo
  immune function in ARC or AIDS patients: improved immune function in AIDS patients
[3]; in vivo
  safety profile: acceptable
  tolerability: well tolerated

## Cc1ccc(C(=O)Nc2ccc(S(=O)(=O)O)c3cc(S(=O)(=O)O)cc(S(=O)(=O)O)c23)cc1NC(=O)c1cccc(NC(=O)Nc2cccc(C(=O)Nc3cc(C(=O)Nc4ccc(S(=O)(=O)O)c5cc(S(=O)(=O)O)cc(S(=O)(=O)O)c45)ccc3C)c2)c1 [Suramin]
[1]
  therapeutic benefit or clinical improvement in AIDS patients: little or no evidence of clinical improvement or immunologic recovery

## ammonium 21-tungsto-9-antimoniate [HPA-23]
[1]
  therapeutic benefit or clinical improvement in AIDS patients: no therapeutic benefit has been documented in AIDS patients
[8]
  reverse transcriptase inhibition, several retroviruses: Inhibits reverse transcriptase in several retroviruses in vitro
[9]
  growth of HIV: some tendency to check the growth of HIV

## α-Interferon
[10]
  tumor regression in AIDS-related Kaposi's sarcoma: induced tumor regression in some AIDS-related Kaposi's sarcoma cases
[9]
  growth of HIV: Checks the growth of HIV in vitro
